# Columns and labels:
# [1] = Plasma pharmacokinetics of FN-1501 and metabolite M3 in patients (LC/MS-MS, noncompartmental); type: in vivo, human; details: for AUClast / AUC∞ / CL / Cmax / MRT∞ / Vss / Vz / t1/2 / tmax: mean; for Clearance: discussion; for Css,u: 260 mg
# Description: For PK assessment, blood samples were collected pre-dose and 0.083, 0.25, 0.5, 1, 2, 4, 6, 8, 12, 24, and 48 h post-dose on Cycle 1, Day 1, and pre-dose on Cycle 2, Day 1. Plasma concentrations of FN-1501 and its metabolite M3 were analyzed at KCAS in Shawnee, KS, using a validated liquid chromatography/tandem mass spectrometry method. Primary pharmacokinetic (PK) endpoints were derived from FN-1501 and M3 concentration–time profiles and were analyzed using standard noncompartmental methods of analysis (Phoenix version 8).
# MOLM-13 = test system: MOLM-13; design: method as in data on file, Fosun Pharma; details: ref data on file, Fosun Pharma; cited from earlier work
# MV-4-11 xenograft = details: preclinical, no reference given; cited from earlier work
structure (smiles),measurement,setting,value
CN1CCN(Cc2ccc(NC(=O)c3[nH]ncc3Nc3ncnc4[nH]ccc34)cc2)CC1 [FN-1501],AUClast,[1]; 2.5 mg IV,29.4 ± 11.9 ng·h/mL
same,AUC∞,[1]; 2.5 mg IV,32.4 ± 13.1 ng·h/mL
same,CL,[1]; 2.5 mg IV,85.1 ± 26.8 L/h
same,Cmax,[1]; 2.5 mg IV,12.0 ± 1.42 ng/mL
same,MRT∞,[1]; 2.5 mg IV,11.7 ± 4.59 h
same,Vss,[1]; 2.5 mg IV,913 ± 206 L
same,Vz,[1]; 2.5 mg IV,1510 ± 421 L
same,t1/2,[1]; 2.5 mg IV,12.8 ± 3.5 h
same,tmax,[1]; 2.5 mg IV,1.2 ± 0.10 h
same,AUClast,[1]; 5 mg IV,52.1 ± 18.2 ng·h/mL
same,AUC∞,[1]; 5 mg IV,56.5 ± 18.2 ng·h/mL
same,CL,[1]; 5 mg IV,93.9 ± 25.2 L/h
same,Cmax,[1]; 5 mg IV,25.5 ± 17.3 ng/mL
same,MRT∞,[1]; 5 mg IV,13.7 ± 3.74 h
same,Vss,[1]; 5 mg IV,1320 ± 619 L
same,Vz,[1]; 5 mg IV,2570 ± 932 L
same,t1/2,[1]; 5 mg IV,18.6 ± 2.34 h
same,tmax,[1]; 5 mg IV,1.1 ± 0.02 h
same,AUClast,[1]; 10 mg IV,119 ± 32.6 ng·h/mL
same,AUC∞,[1]; 10 mg IV,129 ± 41.3 ng·h/mL
same,CL,[1]; 10 mg IV,84.7 ± 32.4 L/h
same,Cmax,[1]; 10 mg IV,36.9 ± 17.5 ng/mL
same,MRT∞,[1]; 10 mg IV,12.5 ± 2.84 h
same,Vss,[1]; 10 mg IV,1110 ± 664 L
same,Vz,[1]; 10 mg IV,1720 ± 925 L
same,t1/2,[1]; 10 mg IV,13.7 ± 2.68 h
same,tmax,[1]; 10 mg IV,1.2 ± 0.15 h
same,AUClast,[1]; 15 mg IV,138 ± 10.8 ng·h/mL
same,AUC∞,[1]; 15 mg IV,153 ± 8.45 ng·h/mL
same,CL,[1]; 15 mg IV,98.5 ± 5.29 L/h
same,Cmax,[1]; 15 mg IV,35.6 ± 2.15 ng/mL
same,MRT∞,[1]; 15 mg IV,16.1 ± 2.64 h
same,Vss,[1]; 15 mg IV,1600 ± 331 L
same,Vz,[1]; 15 mg IV,2370 ± 536 L
same,t1/2,[1]; 15 mg IV,16.6 ± 3 h
same,tmax,[1]; 15 mg IV,1.2 ± 0.14 h
same,AUClast,[1]; 22.5 mg IV,251 ± 87.8 ng·h/mL
same,AUC∞,[1]; 22.5 mg IV,239 ± 55.4 ng·h/mL
same,CL,[1]; 22.5 mg IV,96.9 ± 22.5 L/h
same,Cmax,[1]; 22.5 mg IV,65.8 ± 24.5 ng/mL
same,MRT∞,[1]; 22.5 mg IV,16.4 ± 1.01 h
same,Vss,[1]; 22.5 mg IV,1600 ± 466 L
same,Vz,[1]; 22.5 mg IV,2570 ± 663 L
same,t1/2,[1]; 22.5 mg IV,18.3 ± 0.49 h
same,tmax,[1]; 22.5 mg IV,1.2 ± 0.19 h
same,AUClast,[1]; 30 mg IV,297 ± 55.8 ng·h/mL
same,AUC∞,[1]; 30 mg IV,341 ± 47.1 ng·h/mL
same,CL,[1]; 30 mg IV,89.1 ± 13.3 L/h
same,Cmax,[1]; 30 mg IV,87.8 ± 37.5 ng/mL
same,MRT∞,[1]; 30 mg IV,13.4 ± 8.49 h
same,Vss,[1]; 30 mg IV,1130 ± 619 L
same,Vz,[1]; 30 mg IV,1500 ± 786 L
same,t1/2,[1]; 30 mg IV,12.4 ± 7.43 h
same,tmax,[1]; 30 mg IV,1.1 ± 0.11 h
same,AUClast,[1]; 40 mg IV,437 ± 77.2 ng·h/mL
same,AUC∞,[1]; 40 mg IV,499 ± 122 ng·h/mL
same,CL,[1]; 40 mg IV,83.6 ± 18.6 L/h
same,Cmax,[1]; 40 mg IV,128 ± 41.9 ng/mL
same,MRT∞,[1]; 40 mg IV,18.3 ± 6.19 h
same,Vss,[1]; 40 mg IV,1450 ± 185 L
same,Vz,[1]; 40 mg IV,2160 ± 195 L
same,t1/2,[1]; 40 mg IV,18.7 ± 5.68 h
same,tmax,[1]; 40 mg IV,1.1 ± 0.044 h
same,AUClast,[1]; 54 mg IV,773 ± 180 ng·h/mL
same,AUC∞,[1]; 54 mg IV,868 ± 181 ng·h/mL
same,CL,[1]; 54 mg IV,63.9 ± 12.4 L/h
same,Cmax,[1]; 54 mg IV,323 ± 55.6 ng/mL
same,MRT∞,[1]; 54 mg IV,16.9 ± 7.34 h
same,Vss,[1]; 54 mg IV,1080 ± 516 L
same,Vz,[1]; 54 mg IV,1820 ± 740 L
same,t1/2,[1]; 54 mg IV,19.6 ± 6.44 h
same,tmax,[1]; 54 mg IV,1.1 ± 0.05 h
same,AUClast,[1]; 72 mg IV,742 ± 275 ng·h/mL
same,AUC∞,[1]; 72 mg IV,823 ± 292 ng·h/mL
same,CL,[1]; 72 mg IV,94.2 ± 28.8 L/h
same,Cmax,[1]; 72 mg IV,161 ± 67.7 ng/mL
same,MRT∞,[1]; 72 mg IV,16.8 ± 1.12 h
same,Vss,[1]; 72 mg IV,1580 ± 489 L
same,Vz,[1]; 72 mg IV,2370 ± 833 L
same,t1/2,[1]; 72 mg IV,17.2 ± 1.58 h
same,tmax,[1]; 72 mg IV,1.3 ± 0.24 h
same,AUClast,[1]; 96 mg IV,1420 ± 236 ng·h/mL
same,AUC∞,[1]; 96 mg IV,1650 ± 229 ng·h/mL
same,CL,[1]; 96 mg IV,59.1 ± 8.20 L/h
same,Cmax,[1]; 96 mg IV,494 ± 289 ng/mL
same,MRT∞,[1]; 96 mg IV,15.4 ± 6.58 h
same,Vss,[1]; 96 mg IV,921 ± 425 L
same,Vz,[1]; 96 mg IV,1410 ± 682 L
same,t1/2,[1]; 96 mg IV,16.1 ± 6.28 h
same,tmax,[1]; 96 mg IV,1.1 ± 0.13 h
same,AUClast,[1]; 128 mg IV,1730 ± 850 ng·h/mL
same,AUC∞,[1]; 128 mg IV,1980 ± 1120 ng·h/mL
same,CL,[1]; 128 mg IV,79.9 ± 4.21 L/h
same,Cmax,[1]; 128 mg IV,533 ± 344 ng/mL
same,MRT∞,[1]; 128 mg IV,18.1 ± 5.53 h
same,Vss,[1]; 128 mg IV,1320 ± 473 L
same,Vz,[1]; 128 mg IV,1790 ± 366 L
same,t1/2,[1]; 128 mg IV,17.8 ± 7.00 h
same,tmax,[1]; 128 mg IV,1.1 ± 0.11 h
same,AUClast,[1]; 170 mg IV,3340 ± 1500 ng·h/mL
same,AUC∞,[1]; 170 mg IV,3760 ± 1980 ng·h/mL
same,CL,[1]; 170 mg IV,56.5 ± 31.5 L/h
same,Cmax,[1]; 170 mg IV,955 ± 330 ng/mL
same,MRT∞,[1]; 170 mg IV,15.8 ± 7.89 h
same,Vss,[1]; 170 mg IV,757 ± 218 L
same,Vz,[1]; 170 mg IV,1120 ± 419 L
same,t1/2,[1]; 170 mg IV,15.0 ± 3.64 h
same,tmax,[1]; 170 mg IV,1.3 ± 0.26 h
same,Clearance,[1]; 170 mg,50 L/h
same,AUClast,[1]; 226 mg IV,5620 ± 1390 ng·h/mL
same,AUC∞,[1]; 226 mg IV,6070 ± 1670 ng·h/mL
same,CL,[1]; 226 mg IV,39.4 ± 0.17 L/h
same,Cmax,[1]; 226 mg IV,1180 ± 232 ng/mL
same,MRT∞,[1]; 226 mg IV,15.2 ± 3.92 h
same,Vss,[1]; 226 mg IV,569 ± 30.8 L
same,Vz,[1]; 226 mg IV,787 ± 139 L
same,t1/2,[1]; 226 mg IV,14.2 ± 2.2 h
same,tmax,[1]; 226 mg IV,1.2 ± 0.02 h
same,Clearance,[1]; 226 mg,38 L/h
same,"Css,u",[1]; 48 h dosing interval,37 ng/mL
same,"Css,u",[1]; 72 h dosing interval,25 ng/mL
same,AUC increase with dose,[1]; 2.5 to 226 mg,greater than dose-proportional
same,Cmax increase with dose,[1]; 2.5 to 226 mg,roughly dose-proportional
same,Drug concentration at end of dosing interval,[1]; 48 h post-dose,approximately 20 ng/mL
same,IC50,MOLM-13,5.2 ng/mL
same,Dose at which tumor growth reached stasis,MV-4-11 xenograft,5 mg/kg
